Patent publication US20210018504A1, “SHON AS A PROGNOSTIC BIOMARKER FOR CANCER AND AS A PREDICTOR OF RESPONSE TO ENDOCRINE THERAPY” (priority 2012, published 2021)

Legend:
[1] = tested on: breast cancer; conditions: adjuvant therapy for 5 years, cited from earlier work
[2] = tested on: MCF7-SHON cells; assay: Total cell number assays in MCF7-Vec and MCF7-SHON stable cells; type: cell-based, human
Procedure: (§1) FIGS. 12A-C. SHON is an estrogen inducible gene. (A) RT-PCR. MCF-7 cells were cultured for 24 h in RPMI media containing 10% foetal bovine serum (FBS). Prior to 17β-estradiol (E2) treatment, cells were further cultured for 72 h in phenol red-free medium containing 10% charcoal stripped-FBS. Cells were then treated with 10 nM of E2. Total RNAs were isolated from the cells at indicated time points and the expression of SHON mRNA was determined by One-Step RT-PCR kits (Qiagen) with the SHON-specific primer pairs of SHONc5 and SHONc3 (Table 1). β-ACTIN was included as the RNA input control using forward primer: 5′-ATCATATCGCCGCGCTCG-3′ (SEQ ID NO: 9) and reverse primer: 5′-CGCTCGGTGAGGATCTTCA-3′ (SEQ ID NO: 10). The bp sizes of amplified products are shown on the right. (B) MCF7-Vec and MCF7-SHON cells were treated with DMSO vehicle (−) or 10 nM of E2 (+) for 72 h in phenol red-free medium containing 10% charcoal stripped-FBS. The expression of SHON in whole cell lysates was determined by Western blot with the rabbit polyclonal SHONα antibody. Molecular weights of detected protein bands are shown on the right. (C) Total cell number assays. MCF7-Vec and MCF7-SHON stable cells were seeded in phenol-red free RPMI media with 10% charcoal stripped FBS. […] The cell number was determined at the days indicated. […] The cell number was determined at the indicated days. **, P<0.01; ***, P<0.001. […]

[3] = tested on: SHON; assay: SHON expression in MCF-7 cells after 17β-estradiol treatment (RT-PCR, Western blot); type: cell-based, human
Procedure: as §1

CC/C(=C(\c1ccccc1)c1ccc(OCCN(C)C)cc1)c1ccccc1 [tamoxifen]
absolute reduction in mortality ([1]; at 15 years): 9.2%
reduction in the annual breast cancer death rate [1]: 34%

C[C@]12CC[C@@H]3c4ccc(O)cc4C[C@@H](CCCCCCCCC[S+]([O-])CCCC(F)(F)C(F)(F)F)[C@H]3[C@@H]1CC[C@@H]2O (stereo partly drawn) [ICI 182780]
SHON-stimulated growth ([2]; 100 nM ICI, ER+ MCF-7 cells): partially attenuated SHON-stimulated growth advantages

C[C@]12CC[C@@H]3c4ccc(O)cc4CC[C@H]3[C@@H]1CC[C@@H]2O [E2, 17β-estradiol]
SHON mRNA levels ([3]; 10 nM E2, MCF-7 cells, RT-PCR): increase in SHON mRNA levels in a time dependent manner
SHON protein expression ([3]; 10 nM E2 for 72 h, MCF7-Vec and MCF7-SHON cells, Western blot): increased
cell number ([2]; 10 nM E2, MCF7-SHON compared with MCF-Vec cells): synergistic increase in cell number
